In patent US8883782B2, “Spiro-tetracyclic ring compounds as beta-secretase modulators and methods of use” (Amgen Inc., priority 2010, dated 2014):
Like-named read-outs stand apart in the source and are kept apart here.

What was measured:
[1] = molecular target: Beta Secretase enzyme (BACE) (Homo sapiens, UniProt P56817); assay: In vitro enzymatic BACE FRET (fluorescence resonance energy transfer) assay; format: biochemical; conditions: average IC50, enzyme assay; read-out: BACE 1 FRET assay
Procedure, shortened: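 Fluorescence read after Tris quench (pH raised to neutrality) of a one-hour BACE reaction. Buffer: acetate 0.05 M, pH 4.2, with 100 uM genapol and 10% DMSO final; started by adding 50 nM FRET peptide substrate spanning the cleavage site.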

[2] = system: Aβ40 in conditioned medium of cells stably expressing Amyloid Precursor Protein (APP); assay: In vitro BACE cell-based assay (Aβ40 in conditioned medium, sandwich ELISA); conditions: read-out: HEK cell assay
Procedure, shortened: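 Conditioned medium from stably APP-expressing cells treated with compound dose series is assayed for Aβ40 by sandwich ELISA with time-resolved fluorescence detection. IC50 is calculated from percent inhibition of Aβ40 against compound concentration.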

[3] = Homo sapiens, HEK293, average IC50, HEK cells

Chain of Beta Secretase enzyme (BACE) (P56817 46-501, species assumed): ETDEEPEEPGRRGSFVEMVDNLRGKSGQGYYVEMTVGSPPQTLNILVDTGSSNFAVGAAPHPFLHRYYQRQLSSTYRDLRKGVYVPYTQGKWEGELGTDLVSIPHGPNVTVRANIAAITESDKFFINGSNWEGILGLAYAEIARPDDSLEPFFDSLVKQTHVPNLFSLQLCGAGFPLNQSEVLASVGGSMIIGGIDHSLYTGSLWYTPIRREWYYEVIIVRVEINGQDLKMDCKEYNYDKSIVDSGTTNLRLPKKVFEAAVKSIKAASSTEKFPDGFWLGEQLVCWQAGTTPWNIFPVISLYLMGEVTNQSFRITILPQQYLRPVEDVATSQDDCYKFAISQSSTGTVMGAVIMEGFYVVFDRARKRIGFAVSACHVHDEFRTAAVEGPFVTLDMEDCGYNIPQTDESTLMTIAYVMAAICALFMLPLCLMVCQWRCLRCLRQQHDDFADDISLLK

| IC50 [1] | IC50 [2, 3] | IC50 ([2]; average IC50, HEK cells) | SMILES |
| --- | --- | --- | --- |
| 1.4 nM | 49 nM |  | NC1=N[C@@]2(CO1)c1cc(-c3cccnc3F)ccc1Oc1nc(F)c(C3=CCCOC3)cc12 [Example 903, (5S)-3-(5,6-dihydro-2H-pyran-3-yl)-2-fluoro-7-(2-fluoro-3-pyridinyl)spiro[chromeno[2,3-b]pyridine-5,4′-[1,3]oxazol]-2′-amine] |
| 269 nM | ≥ 10000 nM |  | NC1=N[C@]2(CO1)c1cc(-c3cccnc3F)ccc1Oc1nc(F)c(N3CCOCC3)cc12 [Example 904, (5R)-2-fluoro-7-(2-fluoro-3-pyridinyl)-3-(4-morpholinyl)spiro[chromeno[2,3-b]pyridine-5,4′-[1,3]oxazol]-2′-amine] |
| 126 nM | 3110 nM |  | CC1(C#Cc2cc3c(nc2F)Oc2ccc(-c4ccc(F)nc4)cc2[C@]32COC(N)=N2)COC1 [Example 905, (5R)-2-fluoro-7-(6-fluoro-3-pyridinyl)-3-((3-methyl-3-oxetanyl)ethynyl)spiro[chromeno[2,3-b]pyridine-5,4′-[1,3]oxazol]-2′-amine] |
| 54.2 nM | 1490 nM |  | CC1(C#Cc2cc3c(nc2F)Oc2ccc(-c4cncc(F)c4)cc2[C@]32COC(N)=N2)COC1 [Example 906, (5R)-2-fluoro-7-(5-fluoro-3-pyridinyl)-3-((3-methyl-3-oxetanyl)ethynyl)spiro[chromeno[2,3-b]pyridine-5,4′-[1,3]oxazol]-2′-amine] |
| 1.1 nM | 23 nM |  | CC1(C#Cc2cc3c(nc2F)Oc2ccc(-c4cncc(F)c4)cc2[C@@]32COC(N)=N2)COC1 [Example 907, (5S)-2-fluoro-7-(5-fluoro-3-pyridinyl)-3-((3-methyl-3-oxetanyl)ethynyl)spiro[chromeno[2,3-b]pyridine-5,4′-[1,3]oxazol]-2′-amine] |
| 22.3 nM | 1770 nM |  | CC(C)(C)COc1ccc2c(c1)[C@]1(COC(N)=N1)c1cc(C3=CCCOC3)ccc1O2 [Example 910, (4S)-2′-(5,6-dihydro-2H-pyran-3-yl)-7′-(2,2-dimethylpropoxy)spiro[1,3-oxazole-4,9′-xanthen]-2-amine] |
| 19.2 nM | 1290 nM |  | CC(C)(C)COc1ccc2c(c1)C1(COC(N)=N1)c1cc(C3CCCOC3)ccc1O2 [Example 911, (4S)-2′-(2,2-dimethylpropoxy)-7′-((3R)-tetrahydro-2H-pyran-3-yl)spiro[1,3-oxazole-4,9′-xanthen]-2-amine, (4S)-2′-(2,2-dimethylpropoxy)-7′-((3S)-tetrahydro-2H-pyran-3-yl)spiro[1,3-oxazole-4,9′-xanthen]-2-amine] |
| 25.1 nM | 338 nM |  | NC1=N[C@@]2(CO1)c1cc(-c3c(F)ccnc3F)ccc1Oc1cnc([C@@H]3CCCOC3)cc12 [Example 912, (5S)-7-(2,4-difluoro-3-pyridinyl)-3-((3S)-tetrahydro-2H-pyran-3-yl)spiro[chromeno[2,3-c]pyridine-5,4′-[1,3]oxazol]-2′-amine] |
| 13.5 nM |  | 102 nM | NC1=N[C@@]2(CO1)c1cc(-c3c(F)ccnc3F)ccc1Oc1cnc([C@H]3CCCCO3)cc12 [Example 914, (5S)-7-(2,4-difluoro-3-pyridinyl)-3-((2R)-tetrahydro-2H-pyran-2-yl)spiro[chromeno[2,3-c]pyridine-5,4′-[1,3]oxazol]-2′-amine] |
| 2.5 nM | 23 nM |  | NC1=N[C@@]2(CO1)c1cc(-c3c(F)ccnc3F)ccc1Oc1cnc([C@@H]3CCCCO3)cc12 [Example 915, (5S)-7-(2,4-difluoro-3-pyridinyl)-3-((2S)-tetrahydro-2H-pyran-2-yl)spiro[chromeno[2,3-c]pyridine-5,4′-[1,3]oxazol]-2′-amine] |
| 0.3 nM | 5 nM |  | NC1=N[C@@]2(CO1)c1cc(-c3cccnc3F)ccc1Oc1c2cc(N2CC[C@H](F)C2)nc1F [Example 917, (5S)-1-fluoro-7-(2-fluoro-3-pyridinyl)-3-((3S)-3-fluoro-1-pyrrolidinyl)spiro[chromeno[2,3-c]pyridine-5,4′-[1,3]oxazol]-2′-amine] |
| 0.2 nM | 4 nM |  | NC1=N[C@@]2(CO1)c1cc(-c3cccnc3F)ccc1Oc1c2cc(N2CCC(F)(F)C2)nc1F [Example 918, (S)-3-(3,3-difluoropyrrolidin-1-yl)-1-fluoro-7-(2-fluoropyridin-3-yl)-5′-H-spiro[chromeno[2,3-c]pyridine-5,4′-oxazol]-2′-amine] |

The next lines start with the compound.

| SMILES | IC50 [1] | IC50 [2, 3] | IC50 ([2]; average IC50, HEK cells) |
| --- | --- | --- | --- |
| CC1(COc2cc(F)c3c(c2)[C@]2(CSC(N)=N2)c2cc(-c4cccnc4F)c(F)cc2O3)COC1 [Example 885, (4S)-3′,5′-difluoro-2′-(2-fluoro-3-pyridinyl)-7′-((3-methyl-3-oxetanyl)methoxy)spiro[1,3-thiazole-4,9′-xanthen]-2-amine] | 0.4 nM | 5 nM |  |
| CC1(COc2cc(F)c3c(c2)[C@@]2(CSC(N)=N2)c2cc(-c4cccnc4F)c(F)cc2O3)COC1 [Example 886, (4R)-3′,5′-difluoro-2′-(2-fluoro-3-pyridinyl)-7′-((3-methyl-3-oxetanyl)methoxy)spiro[1,3-thiazole-4,9′-xanthen]-2-amine] | 475 nM | ≥ 10000 nM |  |
| NC1=N[C@]2(CS1)c1cc(-c3cncnc3)c(F)cc1Oc1c(F)cc(N3CCOCC3)cc12 [Example 887, (4R)-3′,5′-difluoro-7′-(4-morpholinyl)-2′-(5-pyrimidinyl)spiro[1,3-thiazole-4,9′-xanthen]-2-amine] | 4740 nM | ≥ 10000 nM |  |
| NC1=N[C@@]2(CS1)c1cc(-c3cncnc3)c(F)cc1Oc1c(F)cc(N3CCOCC3)cc12 [Example 888, (4S)-3′,5′-difluoro-7′-(4-morpholinyl)-2′-(5-pyrimidinyl)spiro[1,3-thiazole-4,9′-xanthen]-2-amine] | 2.1 nM | 10 nM |  |
| CN(C)c1cc2c(cn1)Oc1ccc(-c3cccnc3)cc1C21CSC(N)=N1 [Example 889, (5R)-N~3~,N~3~-dimethyl-7-(3-pyridinyl)spiro[chromeno[2,3-c]pyridine-5,4′-[1,3]thiazole]-2′,3-diamine, (5S)-N~3~,N~3~-dimethyl-7-(3-pyridinyl)spiro[chromeno[2,3-c]pyridine-5,4′-[1,3]thiazole]-2′,3-diamine] | 19.9 nM | 540 nM |  |
| NC1=N[C@@]2(CO1)c1cc(-c3cccnc3F)ccc1Oc1cnc(N3C[C@@H]4C[C@H]3CO4)cc12 [Example 891, (5S)-7-(2-fluoro-3-pyridinyl)-3-((1S,4S)-2-oxa-5-azabicyclo[2.2.1]hept-5-yl)spiro[chromeno[2,3-c]pyridine-5,4′-[1,3]oxazol]-2′-amine] | 1.9 nM | 61 nM |  |
| NC1=N[C@@]2(CO1)c1cc(-c3cccnc3F)ccc1Oc1c2cc(N2CCOCC2)nc1F [Example 892, (5S)-1-fluoro-7-(2-fluoro-3-pyridinyl)-3-(4-morpholinyl)spiro[chromeno[2,3-c]pyridine-5,4′-[1,3]oxazol]-2′-amine] | 0.3 nM | 5 nM |  |
| N#Cc1cccc(-c2ccc3c(c2)[C@@]2(COC(N)=N2)c2cc(N4CCOCC4)ncc2O3)c1 [Example 895, 3-((5S)-2′-amino-3-(4-morpholinyl)spiro[chromeno[2,3-c]pyridine-5,4′-[1,3]oxazol]-7-yl)benzonitrile] | 2.4 nM | 8 nM |  |
| NC1=N[C@@]2(CO1)c1cc(-c3cccnc3F)c(F)cc1Oc1ncc(-c3ccc(F)nc3)cc12 [Example 896, (5S)-8-fluoro-7-(2-fluoro-3-pyridinyl)-3-(6-fluoro-3-pyridinyl)spiro[chromeno[2,3-b]pyridine-5,4′-[1,3]oxazol]-2′-amine] | 2.4 nM | 74 nM |  |
| NC1=N[C@]2(CO1)c1cc(-c3cccnc3F)c(F)cc1Oc1ncc(-c3ccc(F)nc3)cc12 [Example 897, (5R)-8-fluoro-7-(2-fluoro-3-pyridinyl)-3-(6-fluoro-3-pyridinyl)spiro[chromeno[2,3-b]pyridine-5,4′-[1,3]oxazol]-2′-amine] | 175 nM | 6360 nM |  |
| NC1=N[C@@]2(CO1)c1cc(-c3cccnc3F)ccc1Oc1nc(F)c(I)cc12 [Example 898, (5S)-2-fluoro-7-(2-fluoro-3-pyridinyl)-3-iodospiro[chromeno[2,3-b]pyridine-5,4′-[1,3]oxazol]-2′-amine] | 10600 nM | ≥ 10000 nM |  |
| NC1=N[C@]2(CO1)c1cc(-c3cccnc3F)ccc1Oc1nc(F)c(I)cc12 [Example 899, (5R)-2-fluoro-7-(2-fluoro-3-pyridinyl)-3-iodospiro[chromeno[2,3-b]pyridine-5,4′-[1,3]oxazol]-2′-amine] | 40000 nM | ≥ 10000 nM |  |
| CC1(C#Cc2cc3c(nc2F)Oc2ccc(-c4cccnc4F)cc2[C@]32COC(N)=N2)COC1 [Example 900, (5R)-2-fluoro-7-(2-fluoro-3-pyridinyl)-3-((3-methyl-3-oxetanyl)ethynyl)spiro[chromeno[2,3-b]pyridine-5,4′-[1,3]oxazol]-2′-amine] | 48.1 nM | 1160 nM |  |
| NC1=N[C@]2(CO1)c1cc(-c3cccnc3F)ccc1Oc1nc(F)c(C3=CCCOC3)cc12 [Example 902, (5R)-3-(5,6-dihydro-2H-pyran-3-yl)-2-fluoro-7-(2-fluoro-3-pyridinyl)spiro[chromeno[2,3-b]pyridine-5,4′-[1,3]oxazol]-2′-amine] | 137 nM | 3220 nM |  |
| NC1=N[C@@]2(CO1)c1cc(-c3c(F)ccnc3F)ccc1Oc1cnc([C@H]3CCCOC3)cc12 [Example 913, (5S)-7-(2,4-difluoro-3-pyridinyl)-3-((3R)-tetrahydro-2H-pyran-3-yl)spiro[chromeno[2,3-c]pyridine-5,4′-[1,3]oxazol]-2′-amine] | 16.1 nM | 211 nM |  |
